Converted amounts (≈) assume the structure as drawn. Read-outs that look alike come from different tables or passages of the source.
How the values were obtained:
[1] = tested on: Enterococcus fecalis Strain SF24413 NR31971; assay: MIC, broth microdilution in TSB; format: cell-based; details: Enterococcus, TSB
Method: (§1) The minimum inhibitory concentrations (MICs) of the compounds and control drugs were determined using the broth microdilution method, according to guidelines outlined by the Clinical and Laboratory Standards Institute (CLSI). Enterococci strains were grown aerobically overnight on tryptone soya agar plates at 37° C., afterwards a bacterial solution equivalent to 0.5 McFarland standard was prepared and diluted in tryptone soy broth (TSB) to achieve a bacterial concentration of about 5×10^5 CFU/mL and seeded in 96-well well plates. Compounds and control drugs were added in the first row of the 96-well plates and serially diluted along the plates. Plates were then incubated aerobically at 37° C. for 18-20 hours. MICs reported in Table 1 are the minimum concentration of the compounds/control drugs that could inhibit completely the visual growth of the bacteria.

[2] = tested on: Enterococcus fecalis Strain MMH594-NR31975; assay: MIC, broth microdilution in TSB; format: cell-based; details: Enterococcus, TSB
Method: as §1

[3] = tested on: Enterococcus fecalis Strain SF 28073-NR31972; assay: MIC, broth microdilution in TSB; format: cell-based; details: Enterococcus, TSB
Method: as §1

[4] = tested on: Enterococcus faecium Patient #2-1-NR-31909; assay: MIC, broth microdilution in TSB; format: cell-based; details: Enterococcus faecium, TSB
Method: as §1

[5] = tested on: Enterococcus faecium Patient #3-1 NR-31912; assay: MIC, broth microdilution in TSB; format: cell-based; details: Enterococcus faecium, TSB
Method: as §1

[6] = tested on: Enterococcus faecium E417-HM-965; assay: MIC, broth microdilution in TSB; format: cell-based; details: Enterococcus faecium, E417HM965, TSB
Method: as §1

[7] = tested on: Enterococcus fecalis Strain SF 24397 NR31970; assay: MIC, broth microdilution in TSB; format: cell-based; details: Enterococcus, TSB
Method: as §1

[8] = tested on: Enterococcus faecalis—S613 HM-334; assay: MIC, broth microdilution in TSB; format: cell-based; details: Enterococcus, TSB
Method: as §1

[9] = tested on: MRSA NRS 384 (MRSA USA300); assay: MIC against Staphylococci, broth microdilution; format: cell-based, Staphylococcus aureus; details: Staphylococcus aureus; TSB; read-out: MIC
Method: as §1, with “Institute (CLSI) 1. Staphylococci” for “Institute (CLSI). Enterococci”, “Table 2” for “Table 1”

[10] = tested on: Staphylococcus epidermidis NRS 101; assay: MIC against Staphylococci, broth microdilution; format: cell-based; details: Staphylococcus epidermidis, NRS101; TSB; read-out: MIC
Method: as §1, with “Institute (CLSI) 1. Staphylococci” for “Institute (CLSI). Enterococci”, “Table 2” for “Table 1”

[11] = tested on: Bacteroides dorei—CL02T12C06 HM-719; assay: MIC against human normal gut microbiota; format: cell-based; details: Bacteroides; BHIS broth, anaerobic, 48 hours; read-out: MIC
Method: (§2) Three different bacterial strains were used in this experiment; Bifidobacterium (anaerobic Gram positive bacteria), Bacteroides (anaerobic Gram negative bacteria) and Lactobacillus (microaerophilic Gram positive bacteria). Bifidobacterium and Bacteroides were first grown for 48 hours at 37° C., anaerobically using brain heart infusion supplemented (BHIS) agar (Brain heart infusion agar supplemented with hemin, vitamin K and L-cysteine). Lactobacillus was cultivated on MRS agar and incubated in presence of 5% CO2 for 48 hours at 37° C. Each bacterium was suspended in phosphate buffered saline (PBS) to produce a suspension with optical density that matches 0.5 McFarland standard and diluted in brain heart infusion supplemented broth (for Bifidobacterium and Bacteroides) or in MRS broth (for Lactobacillus) to achieve bacterial concentration of approximately 5×10^5 CFU/ml. Bacteria were then seeded in 96-well plates containing serial dilutions of the compounds and incubated as mentioned previously for 48 hours.

[12] = tested on: Bifidobacterium longum subsp. Longum—44B HM 845; assay: MIC against human normal gut microbiota; format: cell-based; details: Bifidobacterium longum; BHIS broth, anaerobic, 48 hours; read-out: MIC
Method: as §2

[13] = tested on: Bifidobacterium breve—JCP7499 HIM 1120; assay: MIC against human normal gut microbiota; format: cell-based; details: Bifidobacterium; BHIS broth, anaerobic, 48 hours; read-out: MIC
Method: as §2

[14] = tested on: Lactobacillus casei ATCC 334; assay: MIC against human normal gut microbiota; format: cell-based; details: Lacticaseibacillus casei, ATCC334; MRS broth, 5% CO2, 48 hours; read-out: MIC
Method: as §2

[15] = tested on: Bacteroides fragilis—CL07T00C01 HIM-709; assay: MIC against human normal gut microbiota; format: cell-based; details: Bacteroides; BHIS broth, anaerobic, 48 hours; read-out: MIC
Method: as §2

[16] = tested on: Lactobacillus gasseri EX336960VC03 HIM-400; assay: MIC against human normal gut microbiota; format: cell-based; details: Lactobacillus gasseri; MRS broth, 5% CO2, 48 hours; read-out: MIC
Method: as §2

[17] = tested on: Enterococcus faecalis—S613 HM-334; assay: MIC of CAIs in BHIB and TSB; format: cell-based
Method: The minimum inhibitory concentrations (MICs) of CAIs were tested against clinical isolates of vancomycin sensitive and vancomycin resistant Enterococci strains as per the guidelines provided by the Clinical and Laboratory Standards Institute (CLSI). The selected strains of Enterococci were streaked on Tryptic Soy Agar (TSA) plates and let grow for 24 hours at 37° C. Afterwards, a bacterial solution equivalent to 0.5 McFarland standard was prepared and diluted in tryptone soy broth (TSB) or brain heart infusion broth (BHIB) to achieve a bacterial concentration of about 5×10^5 CFU/mL and seeded in 96-well well plates. Compounds and control drugs were added in the first row of the 96-well plates and serially diluted along the plates. Plates were then incubated aerobically at 37° C. for 18-20 hours. MICs reported in Table 5 are the minimum concentration of the compounds/control drugs that could inhibit completely the visual growth of the bacteria. The MIC values of CAIs against the tested VRE strains were higher in BHIB than in TSB. This may be due to binding of these drugs to proteins. […] They inhibited the VRE strains at MIC values ranging from 1 to 4 μg/mL.

[18] = tested on: Enterococcus faecalis-S613 HM-334; assay: MIC in presence of 4% human serum albumin; format: cell-based; details: TSB supplemented with 4% human serum albumin
Method: The minimum inhibitory concentrations (MICs) of CAIs were tested against vancomycin resistant Enterococcus faecalis—S613 HM 334 strain as per the guidelines provided by the Clinical and Laboratory Standards Institute (CLSI). The selected strain was streaked on Tryptic Soy Agar (TSA) plate and let grow for 24 hours at 37° C. Afterwards, a bacterial solution equivalent to 0.5 McFarland standard was prepared and diluted in tryptone soy broth (TSB) supplemented with 4% human serum albumin (HAS) to achieve a bacterial concentration of about 5×10^5 CFU/mL and seeded in 96-well well plates. Compounds and control drugs were added in the first row of the 96-well plates and serially diluted along the plates. Plates were then incubated aerobically at 37° C. for 18-20 hours. MICs reported in table (6) are the minimum concentration of the compounds/control drugs that could inhibit completely the visual growth of the bacteria.

[19] = tested on: Enterococcus faecium Patient #2-1-NR-31909; assay: MIC of CAIs in BHIB and TSB; format: cell-based
Method: (§3) The minimum inhibitory concentrations (MICs) of CAIs were tested against clinical isolates of vancomycin sensitive and vancomycin resistant Enterococci strains as per the guidelines provided by the Clinical and Laboratory Standards Institute (CLSI). The selected strains of Enterococci were streaked on Tryptic Soy Agar (TSA) plates and let grow for 24 hours at 37° C. Afterwards, a bacterial solution equivalent to 0.5 McFarland standard was prepared and diluted in tryptone soy broth (TSB) or brain heart infusion broth (BHIB) to achieve a bacterial concentration of about 5×10^5 CFU/mL and seeded in 96-well well plates. Compounds and control drugs were added in the first row of the 96-well plates and serially diluted along the plates. Plates were then incubated aerobically at 37° C. for 18-20 hours. MICs reported in Table 5 are the minimum concentration of the compounds/control drugs that could inhibit completely the visual growth of the bacteria.

[20] = tested on: Enterococcus faecium E417-HM-965; assay: MIC of CAIs in BHIB and TSB; format: cell-based
Method: as §3

[21] = tested on: Enterococcus fecalis Strain SF 24397 NR31970; assay: MIC of CAIs in BHIB and TSB; format: cell-based
Method: as §3

[22] = Enterococcus, TSB, Table 5, read-out: MIC

**Q.** How did the MIC ([1]; Table 1, read-out: MIC) turn out when `CCC(=O)Nc1nnc(S(N)(=O)=O)s1` [CAI0009, N-(5-Sulfamoyl-1,3,4-thiadiazol-2-yl) propionamide] was run?
**A.** 4 µg/mL (≈ 16.9 µM)

**Q.** And the MIC ([1]; Table 7, read-out: MIC in TSB)?
**A.** 4 µg/mL (≈ 16.9 µM)

**Q.** And the MIC ([2]; Table 1, read-out: MIC)?
**A.** 2 µg/mL (≈ 8.46 µM)

**Q.** What about the MIC ([2]; Table 7, read-out: MIC in TSB) of the same molecule?
**A.** 2 µg/mL (≈ 8.46 µM)

**Q.** And the MIC ([3]; Table 1, read-out: MIC)?
**A.** 4 µg/mL (≈ 16.9 µM)

**Q.** What about the MIC ([3]; Table 7, read-out: MIC in TSB) of the same molecule?
**A.** 4 µg/mL (≈ 16.9 µM)

**Q.** What about the MIC ([4]; Table 1, read-out: MIC) of the same molecule?
**A.** 1 µg/mL (≈ 4.23 µM)

**Q.** And the MIC ([4]; Table 7, read-out: MIC in TSB)?
**A.** 1 µg/mL (≈ 4.23 µM)

**Q.** What about the MIC ([5]; Table 1, read-out: MIC) of the same molecule?
**A.** 1 µg/mL (≈ 4.23 µM)

**Q.** And the MIC ([5]; Table 7, read-out: MIC in TSB)?
**A.** 1 µg/mL (≈ 4.23 µM)

**Q.** And the MIC ([6]; Table 1, read-out: MIC)?
**A.** 1 µg/mL (≈ 4.23 µM)

**Q.** And the MIC ([6]; Table 7, read-out: MIC in TSB)?
**A.** 1 µg/mL (≈ 4.23 µM)

**Q.** What about the MIC ([7]; Table 1, read-out: MIC) of the same molecule?
**A.** 4 µg/mL (≈ 16.9 µM)

**Q.** What about the MIC ([7]; Table 7, read-out: MIC in TSB) of the same molecule?
**A.** 4 µg/mL (≈ 16.9 µM)

**Q.** And the MIC ([8]; Table 1, read-out: MIC)?
**A.** 2 µg/mL (≈ 8.46 µM)

**Q.** What about the MIC ([8]; Table 7, read-out: MIC in TSB) of the same molecule?
**A.** 2 µg/mL (≈ 8.46 µM)

**Q.** And the MIC [9]?
**A.** > 64 µg/mL

**Q.** And the MIC [10]?
**A.** > 64 µg/mL

**Q.** What about the MIC [11] of the same molecule?
**A.** > 64 µg/mL

**Q.** What about the MIC [12] of the same molecule?
**A.** > 64 µg/mL

**Q.** What about the MIC [13] of the same molecule?
**A.** > 64 µg/mL

**Q.** What about the MIC [14] of the same molecule?
**A.** > 64 µg/mL

**Q.** And the MIC [15]?
**A.** > 64 µg/mL

**Q.** What about the MIC [16] of the same molecule?
**A.** > 64 µg/mL

**Q.** Which MIC ([17]; Enterococcus, BHIIB, read-out: MIC) does the source give for `CC(=O)/N=c1/sc(S(N)(=O)=O)nn1C` [Methazolamide] here?
**A.** > 128 µg/mL

**Q.** What about the MIC [17, 22] of the same molecule?
**A.** 1 µg/mL

**Q.** What about the MIC ([18]; Enterococcus, read-out: MIC) of the same molecule?
**A.** > 256 µg/mL

**Q.** And the MIC ([19]; Enterococcus faecium, BHIB, read-out: MIC)?
**A.** > 128 µg/mL

**Q.** What about the MIC ([19]; Enterococcus faecium, TSB, Table 5, read-out: MIC) of the same molecule?
**A.** 8 µg/mL

**Q.** What about the MIC ([20]; Enterococcus faecium, E417HM965, BHIB, read-out: MIC) of the same molecule?
**A.** 64 µg/mL

**Q.** What about the MIC ([20]; Enterococcus faecium, E417HM965, TSB, Table 5, read-out: MIC) of the same molecule?
**A.** 4 µg/mL

**Q.** What about the MIC ([21]; Enterococcus, BHIB, read-out: MIC) of the same molecule?
**A.** > 128 µg/mL

**Q.** What about the MIC [21, 22] of the same molecule?
**A.** 2 µg/mL

**Q.** `NS(=O)(=O)c1cc(Cl)c(Cl)c(S(N)(=O)=O)c1` [Dichlophenamide] was tested. Which MIC ([17]; BHIIB) did it give?
**A.** >128 µg/mL

**Q.** And the MIC ([17]; TSB, Table 5)?
**A.** 16 µg/mL

**Q.** And the MIC [18]?
**A.** >256 µg/mL

**Q.** And the MIC ([19]; BHIB)?
**A.** >128 µg/mL

**Q.** What about the MIC ([19]; TSB, Table 5) of the same molecule?
**A.** 2 µg/mL

**Q.** What about the MIC ([20]; BHIB) of the same molecule?
**A.** 16 µg/mL

**Q.** What about the MIC ([20]; TSB, Table 5) of the same molecule?
**A.** 1 µg/mL

**Q.** What about the MIC ([21]; BHIB) of the same molecule?
**A.** >128 µg/mL

**Q.** What about the MIC ([21]; TSB, Table 5) of the same molecule?
**A.** 16 µg/mL

From patent US12378211B2, “Carbonic anhydrase inhibitors and antibiotics against multidrug resistant bacteria” (Purdue Research Foundation, priority 2018, dated 2025)
